Experimental findings from US20060193785A1, “Pharmaceutical aerosol formulations for pressurized metered dose inhalers comprising a sequestering agent” (priority 2005, published 2006) are described below.

The nature of data set [1]: Stability study of budesonide HFA solution formulation in anodized aluminium cans at 40° C. and 75% relative humidity. In kind it is physicochemical. Here is the method: A formulation for delivering a nominal dose of 200 μg of budesonide per actuation was prepared and filled in anodized aluminium canisters fitted with a metering valve having a 50 μl metering chamber.
A stability study was carried out by storing the formulation in upright (Up) and inverted (Inv) cans at 40° C. and 75% relative humidity. After three months of storage under these conditions the percent recovery of the active ingredient was very good. At the same time, the addition of small quantities of phosphoric acid appears to reduce the main oxidation degradation product, which is the 21-aldehyde content of the budesonide formulation.

A short description of data set [2]: TA 2005 stability in presence of sulphuric acid, upright Teflon-coated cans at 40° C. In kind it is physicochemical. The note with it: 0.075 M sulphuric acid in a concentration of 0.0018 to 0.0054% w/w. The protocol: A formulation of 8-hydroxy-5-[(1R)-1-hydroxy-2-[[(1R)-2-(4-methoxyphenyl)-1-methyl ethyl]amino]ethyl]-2(1H)-quinolinone hydrochloride (TA 2005) for delivering a nominal dose of 1 μg of active ingredient per actuation, was prepared with the following formulation: […]
The formulation (120 actuations/canister, overage of 30 actuations) was filled in aluminium canisters having the internal surface coated with Teflon and fitted with a metering valve having a 63 μl metering chamber.
A stability study was carried out by storing the formulation in upright cans at 40° C. The percent recovery of the active ingredient after one month of storage under these conditions is reported in the following: […]

The structures appear in SMILES notation.

For `CCCC1O[C@@H]2C[C@H]3[C@@H]4CCC5=CC(=O)C=C[C@]5(C)[C@H]4[C@@H](O)C[C@]3(C)[C@]2(C(=O)CO)O1` (some centres unmarked) [Budesonide, budesonide], the “effect of small quantities of phosphoric acid on 21-aldehyde content (main oxidation degradation product)” value in data set [1] is “reduce”.
As to `COc1ccc(C[C@@H](C)NC[C@H](O)c2ccc(O)c3[nH]c(=O)ccc23)cc1.Cl` [TA 2005, 8-hydroxy-5-[(1R)-1-hydroxy-2-[[(1R)-2-(4-methoxyphenyl)-1-methylethyl]amino]ethyl]-2(1H)-quinolinone hydrochloride], the chemical stability result in data set [2] is “improved”.
